Laboratory results taken from patent publication US4294843A, “Anti-protozoal oxadiazole derivatives” (Burroughs Wellcome Co., priority 1978, dated 1981).
Structures can show the parent of a compound that is named as a salt.

Experiments:
[1] = system: P. berghei; test: percentage inhibition of P. berghei (blood parasitaemia) in mice, seven oral doses; assay type: in vivo; conditions: Plasmodium berghei, 96 h, parasitaemia on fourth day; for inhibition in vivo at 10 mg/kg: 7 × 10 mg/kg oral; for inhibition in vivo at 100 mg/kg: 7 × 100 mg/kg oral
From the text: Groups of five mice were inoculated intraperitoneally with the normal strain of P. berghei. The mice on test received seven oral doses of drug beginning on the afternoon of the day of infection then twice a day for the following three days. Blood parasitaemias were estimated on the fourth day and compared with those of the untreated controls.
The results are given in Table 1, the results being expressed as percentage inhibition of P. berghei.

[2] = LD50 in female rats, oral by gavage; conditions: rat, in vivo, 10% w/v suspension in corn oil
Method: 1. The LD50 of the compound of Example 3, both as the free base and the hydrochloride salt was determined in female rats by standard techniques the compound being administered as a 10% w/v suspension in corn oil orally by gavage.

Compound | inhibition in vivo at 10 mg/kg [1] [%] | inhibition in vivo at 100 mg/kg [1] [%] | LD50 [2] [mg/kg]
CN(C)c1ccccc1SCc1ncon1 [Example 1, 3-(2-Dimethylaminophenylthiomethyl)-1,2,4-oxadiazole] | 65 | 100 | –
CN(C)c1ccccc1SCc1noc(-c2ccccc2)n1 [Example 2, 3-(2-Dimethylaminophenylthiomethyl)-5-phenyl-1,2,4-oxadiazole] | – | 83 | –
Cl.Nc1ccccc1SCc1ncon1 [Example 3 - HCl salt, 3-(2-Aminophenylthiomethyl)-1,2,4-oxadiazole hydrochloride] | – | – | 63
CNc1ccccc1SCc1ncon1 [Example 4, 3-(2-Methylaminophenylthiomethyl)-1,2,4-oxadiazole] | 67 | 97 | –
Cc1ccc(SCc2ncon2)c(N)c1 [Example 6, 3-(2-Amino-4-methylphenylthiomethyl)-1,2,4-oxadiazole] | 55 | 99 | –
Cc1ccc(N)c(SCc2ncon2)c1 [Example 7, 3-(2-Amino-5-methylphenylthiomethyl)-1,2,4-oxadiazole] | 46 | 99 | –
Nc1cc(Cl)ccc1SCc1ncon1 [Example 8, 3-(2-Amino-4-chlorophenylthiomethyl)-1,2,4-oxadiazole] | 89 | 100 | –
Nc1cccc(Cl)c1SCc1ncon1 [Example 9, 3-(2-Amino-6-chlorophenylthiomethyl)-1,2,4-oxadiazole] | 32 | 89.6 | –
Nc1cc(Br)ccc1SCc1ncon1 [Example 10, 3-(2-Amino-4-bromophenylthiomethyl)-1,2,4-oxadiazole] | 85 | 99 | –
Nc1ccccc1SCc1noc(-c2ccc(Cl)cc2)n1 [Example 11, 3-(2-Aminophenylthiomethyl)-5-(4-chlorophenyl)-1,2,4-oxadiazole] | 54 | 99 | –
Nc1ccccc1SCc1noc(CSc2ccccc2N)n1 [Example 13, 3,5-Di-(2-aminophenylthiomethyl)-1,2,4-oxadiazole] | 77 | – | –
Nc1ccccc1SCc1noc(-c2ccccc2)n1 [Example 14, 3-(2-Aminophenylthiomethyl)-5-phenyl-1,2,4-oxadiazole] | 77 | 100 | –
Cc1nc(CSc2ccccc2N)no1 [Example 15, 3-(2-Aminophenylthiomethyl)-5-methyl-1,2,4-oxadiazole hydrochloride] | 4 | 86 | –
Nc1cc(F)ccc1SCc1ncon1 [Example 16, 3-(2-Amino-4-fluorophenylthiomethyl)-1,2,4-oxadiazole] | 81 | 100 | –
COc1ccc(SCc2ncon2)c(N(C)C)c1 [Example 17, 3-(2-Dimethylamino-4-methoxyphenylthiomethyl)-1,2,4-oxadiazole] | – | 62 | –
CN(C)c1cc(Cl)ccc1SCc1ncon1 [Example 18, 3-(4-Chloro-2-dimethylaminophenylthiomethyl)-1,2,4-oxadiazole] | – | 95 | –
CCOC(=O)Nc1ccccc1SCc1ncon1 [Example 19, 3-(2-Ethoxycarbonylaminophenylthiomethyl)-1,2,4-oxadiazole] | 52 | 99.9 | –
COC(=O)Nc1ccccc1SCc1ncon1 [Example 20, 3-(2-methoxycarbonylaminophenylthiomethyl)-1,2,4-oxadiazole] | – | 97.5 | –
O=C(Nc1ccccc1SCc1ncon1)OCc1ccccc1 [Example 21, 3-(2-Benzyloxycarbonylaminophenylthiomethyl)-1,2,4-oxadiazole] | 68 | 100 | –
CC(=O)Nc1ccccc1SCc1ncon1 [Example 23, 3-(2-Acetylaminophenylthiomethyl)-1,2,4-oxadiazole] | 38 | 100 | –
O=C(Nc1ccccc1SCc1ncon1)c1ccc(Cl)cc1 [Example 25, 3-[2-(4-chlorobenzamido)phenylthiomethyl]-1,2,4-oxadiazole] | 64 | 99.9 | –
O=C(Nc1ccccc1SCc1ncon1)c1ccccc1 [Example 26, 3-(2-Benzamidophenythiomethyl)-1,2,4-oxadiazole] | 52 | – | –
COc1ccc(C(=O)Nc2ccccc2SCc2ncon2)cc1 [Example 27, 3-[2-(4-Methoxybenzamido)phenylthiomethyl]-1,2,4-oxadiazole] | 73 | 85 | –

Compound | inhibition in vivo at 10 mg/kg [1] [%] | inhibition in vivo at 100 mg/kg [1] [%] | LD50 [2] [mg/kg]
CC(C)(C)C(=O)Nc1ccccc1SCc1ncon1 [Example 28, 3-(2-Trimethylacetamidophenylthiomethyl)1,2,4-oxadiazole] | – | 53 | –
O=C(Nc1ccccc1SCc1ncon1)c1ccco1 [Example 29, 3-(2-Furanoylaminophenylthiomethyl)1,2,4-oxadiazole] | 47 | 100 | –
O=C(Nc1ccccc1SCc1ncon1)c1cccs1 [Example 30, 3-(Thiophene-2-carbonylaminophenylthiomethyl)1,2,4-oxadiazole] | 59 | – | –
CS(=O)(=O)Nc1ccccc1SCc1ncon1 [Example 31, 3-(2-Methylsulphonamidophenylthiomethyl)-1,2,4-oxadiazole] | 33 | – | –
Cc1ccc(S(=O)(=O)Nc2ccccc2SCc2ncon2)cc1 [Example 32, 3-[2-(p-toluenesulphonamido)phenylthiomethyl]-1,2,4-oxadiazole] | – | 43 | –
S=C(Nc1ccccc1)Nc1ccccc1SCc1ncon1 [Example 33, N-[2-(1,2,4-oxadiazol-3-yl-methylthio)phenyl]-N^1-phenylthiourea] | 10 | – | –
O=C(Nc1ccccc1SCc1ncon1)NC1CCCCC1 [Example 35] | – | 39 | –
O=[N+]([O-])c1ccc(Oc2ccc(NC(=S)Nc3ccccc3SCc3ncon3)cc2)cc1 [Example 36, N-[2-(1,2,4-oxadiazol-3-yl-methylthio)phenyl]-N^1-4-(4-nitrophenyloxy)phenyl thiourea] | – | 19 | –
O=[N+]([O-])c1ccc(Sc2ccc(NC(=S)Nc3ccccc3SCc3ncon3)cc2)cc1 [Example 37, N-[2-(1,2,4-oxadiazol-3-yl-methylthio)phenyl]-N^1-4-(4-nitrophenylthio)phenyl thiourea] | 50 | 22 | –
COc1ccc(C=Nc2ccccc2SCc2ncon2)cc1OC [Example 38, 3-[2-(3,4-Dimethoxybenzylideneamino)phenylthiomethyl]-1,2,4-oxadiazole] | 9 | 36 | –
COc1ccc(C=Nc2ccccc2SCc2ncon2)cc1 [Example 39, 3-[2-(4-Methoxybenzylideneamino)phenylthiomethyl]-1,2,4-oxadiazole] | 73 | 99.7 | –
Clc1ccccc1C=Nc1ccccc1SCc1ncon1 [Example 40, 3-[2-(2-Chlorobenzylideneamino)phenylthiomethyl]-1,2,4-oxadiazole] | 82 | 100 | –
COc1cc(C=Nc2ccccc2SCc2ncon2)cc(OC)c1OC [Example 41, 3-[2-(3,4,5-Trimethoxybenzylideneamino)phenylthiomethyl]-1,2,4-oxadiazole] | – | 100 | –
Clc1ccc(CNc2ccccc2SCc2ncon2)cc1 [Example 42, 3-[2-(4-Chlorobenzylamino)phenylthiomethyl]1,2,4-oxadiazole] | 93 | 100 | –
OC(CNc1ccccc1SCc1ncon1)COc1ccccc1 (centres unmarked) [Example 43, 2-Hydroxy-1-[2-(1,2,4-oxadiazol-3-ylmethylthio)anilino]-3-phenoxypropane] | 24 | 60 | –
O=[N+]([O-])c1ccccc1SNc1ccccc1SCc1ncon1 [Example 44, 3-[2-(2-Nitrophenylsulphenylamino)phenyl]thiomethyl-1,2,4-oxadiazole] | – | 27 | –
CCN(CC)c1ccccc1SCc1ncon1 [Example 45, 3-(2-Diethylaminophenylthiomethyl)-1,2,4-oxadiazole] | 84 | 100 | –
CCN(C)c1ccccc1SCc1ncon1 [Example 46, 3-[2-(N-ethyl-N-methyl)aminophenylthiomethyl]1,2,4-oxadiazole] | – | 98 | –
CN(C)c1ccccc1SCc1noc(CSc2ccc(Cl)cc2)n1 [Example 48, 5-(4-chlorophenylthiomethyl)-3-(2-dimethylaminophenylthiomethyl)-1,2,4-oxadiazole] | 22 | 88 | –
Nc1ccccc1SCC1=NOCN1 [Example 51, 3-(2-Aminophenylthiomethyl)-4,5-dihydro-1,2,4-oxadiazole] | 63 | – | –
Nc1cc(Cl)ccc1SCC1=NOCN1 [Example 52, 3-(2-Amino-4-chlorophenylthiomethyl)-4,5-dihydro-1,2,4-oxadiazole] | 95 | – | –
CN(C)c1ccccc1SCC1=NOCN1 [Example 53, 3-(2-Dimethylaminophenylthiomethyl)-4,5-dihydro-1,2,4-oxadiazole] | 43 | – | –
CN(C)c1ccccc1SCC(N)=NO [Example 56, 2-(2-Dimethylaminophenylthio)acetamidoxime] | 100 | – | –
